Measurements published in US20080051387A1, “TETRAHYDROPYRIDO[3,4-D]PYRIMIDINES AND RELATED ANALOGUES” (priority 2006, published 2008).
Where two headings read alike, the source gives them in different places.

Biological target: T1, chimeric human H3 receptor (Homo sapiens, UniProt Q9Y5N1)
T1 construct: rat Galpha-i2 (Gnai2, rat); made in house; host or cells: Sf9 insect cells (baculovirus); P2 membranes
Experiment: Chimeric human H3 receptor screening GTP binding assay (inhibition of histamine-stimulated GTP-gamma35S binding, Example 8)
Format: biochemical
Summary of the method: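 Compound tested at 4 μM against 1 μM histamine stimulation; 125 pM GTP-gamma35S binding measured by filtration and scintillation after 60 min at room temperature. Membranes from Sf9 cells expressing chimeric human H3 plus G-protein subunits, in Tris pH 7.4/NaCl/MgCl2/GDP buffer; values are % inhibition after nonspecific subtraction.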

[1] = 1 h, assay of Example 8, symbol "!" in column headed Ki, read-out: percent inhibition of agonist-induced GTP-gammaS binding to H3
[2] = 1 h, assay described in Example 8, symbol "!" in column headed Ki, read-out: Ki ("!": percent inhibition of agonist-induced GTP-gammaS binding to H3)

T1 sequence (Q9Y5N1 with tags, fused parts or gaps): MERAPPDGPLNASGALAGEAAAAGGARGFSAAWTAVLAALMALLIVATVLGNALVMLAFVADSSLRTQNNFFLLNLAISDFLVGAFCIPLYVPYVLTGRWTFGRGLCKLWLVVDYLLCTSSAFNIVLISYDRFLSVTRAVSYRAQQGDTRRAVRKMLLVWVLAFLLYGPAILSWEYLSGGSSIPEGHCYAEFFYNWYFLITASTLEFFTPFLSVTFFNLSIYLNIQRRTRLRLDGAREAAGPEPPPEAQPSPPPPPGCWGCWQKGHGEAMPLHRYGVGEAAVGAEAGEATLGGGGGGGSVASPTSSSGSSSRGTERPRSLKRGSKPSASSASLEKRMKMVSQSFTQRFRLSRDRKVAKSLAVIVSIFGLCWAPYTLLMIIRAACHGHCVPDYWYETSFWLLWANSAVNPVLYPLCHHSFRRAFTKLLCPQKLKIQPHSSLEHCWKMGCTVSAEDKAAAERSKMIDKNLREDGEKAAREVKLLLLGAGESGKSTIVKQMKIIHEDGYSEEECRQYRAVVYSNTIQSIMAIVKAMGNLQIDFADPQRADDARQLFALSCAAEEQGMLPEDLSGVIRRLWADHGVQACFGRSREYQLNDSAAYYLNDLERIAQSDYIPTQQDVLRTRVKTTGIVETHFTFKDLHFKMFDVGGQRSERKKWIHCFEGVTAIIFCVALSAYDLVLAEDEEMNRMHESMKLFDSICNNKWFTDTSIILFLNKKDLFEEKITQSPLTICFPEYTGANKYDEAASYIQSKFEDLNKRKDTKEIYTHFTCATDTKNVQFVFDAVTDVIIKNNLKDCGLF

| inhibition at 4 µM [1] [%] | inhibition at 4 µM [2] [%] | SMILES | further results |
| --- | --- | --- | --- |
| – | ≥ 90 | O=C(c1cc(Cl)ccc1Cl)N1CCc2cnc(N3CCN(C4CCC4)CC3)nc2CC1 [Compound 441, 2-(4-cyclobutylpiperazin-1-yl)-7-(2,5-dichlorobenzoyl)-6,7,8,9-tetrahydro-5H-pyrimido[4,5-d]azepine] | – |
| – | ≥ 90 | O=C(Cc1ccc(OCc2ccccc2)cc1)N1CCc2cnc(N3CCN(C4CCC4)CC3)nc2CC1 [Compound 520, 7-{[4-(benzyloxy)phenyl]acetyl}-2-(4-cyclobutylpiperazin-1-yl)-6,7,8,9-tetrahydro-5H-pyrimido[4,5-d]azepine] | – |

Second part, the compound before the results:

| SMILES | inhibition at 4 µM [1] [%] | inhibition at 4 µM [2] [%] | further results |
| --- | --- | --- | --- |
| O=C(Cc1ccccc1OCc1ccccc1)N1CCc2cnc(N3CCN(C4CCC4)CC3)nc2CC1 [Compound 314, 7-{[2-(benzyloxy)phenyl]acetyl}-2-(4-cyclobutylpiperazin-1-yl)-6,7,8,9-tetrahydro-5H-pyrimido[4,5-d]azepine] | ≥ 90 | – | – |
| O=C(C1c2ccccc2Oc2ccccc21)N1CCc2cnc(N3CCN(C4CCC4)CC3)nc2CC1 [Compound 358, 2-(4-cyclobutylpiperazin-1-yl)-7-(9H-xanthen-9-ylcarbonyl)-6,7,8,9-tetrahydro-5H-pyrimido[4,5-d]azepine] | ≥ 90 | – | – |
| CCOc1cccc(C(=O)N2CCc3cnc(N4CCN(C5CCC5)CC4)nc3CC2)c1 [Compound 367, 2-(4-cyclobutylpiperazin-1-yl)-7-(3-ethoxybenzoyl)-6,7,8,9-tetrahydro-5H-pyrimido[4,5-d]azepine] | ≥ 90 | – | – |
| CC(c1ccccc1)N1CCc2c(ncnc2N2CCN(C3CCC3)CC2)C1 (stereo not drawn) [Compound 101, 4-(4-cyclobutylpiperazin-1-yl)-7-(1-phenylethyl)-5,6,7,8-tetrahydropyrido[3,4-d]pyrimidine] | – | – | inhibition at 4 µM (symbol ! in Ki, test compound 4 μM, 1 μM histamine, read-out: percent inhibition of agonist-induced GTP-gammaS binding to H3): ≥ 90% |
